≈ marks a conversion by molar mass, not a printed value.
Key:
Heps tumour = tested on: Heps tumour; parameters: method as in PMID 25958244; conditions: Heps-transplanted mice, intravenous (IV) administration; cited from earlier work
HepG2 tumours = test: HepG2 hepatoblastoma xenograft in nude mice; type: in vivo; conditions: control groups of the IV study, dose not given
Experimental: Given the in vitro anti-tumour cell activity of 8n, we continued to evaluate its in vivo effect in hepatoblastoma xenograft models using previously reported methods, and the water-soluble anti-cancer drug 5-fluorouracil (5-FU) was used as a positive control. After tumours were established, the mice were IV injected with 2.5, 5, 10 or 50 mg/kg 8n; the lead compound DDO-6101 and antitumour drug 5-FU were used as controls. All mice had normal weights and quality of life in in vivo tests. […] The in vivo activity of 8n was also evaluated after oral administration. […] This observation may be attributed to the improved physicochemical properties of 8n compared to those of DDO-6101, such as aqueous solubility and cell membrane permeability, which were provided by modification with the carbamate moiety.
Figure 7 (A) The tumour diameters were measured and used to calculate the tumour volumes. The HepG2 xenograft-bearing mice were intravenously injected with 2.5, 5, 10 and 50 mg/kg 8n for 20 days. (B) After 20 days, mice were sacrificed and the individual tumours were weighed. *p < 0.05, […]; Student’s t-test (n = 6). (C) The tumour diameters were measured and used to calculate the tumour volumes. The HepG2 xenograft-bearing mice were orally administered 50 mg/kg 8n, 50 mg/kg DDO-6101 or 10 mg/kg 5-FU for 20 days.
All studies were performed in compliance with the relevant guidelines and regulations. Tumours on female nude mice were established by injecting 1×10^7 HepG2 cells on the dorsal surface. After four weeks, tumours of approximately 150 mm^3 were cut into pieces that were 3 mm×3 mm×3 mm in size and were then implanted in the dorsal surface of other female nude mice. One week later, mice implanted with xenografts of 100 mm^3 were selected, randomized, and […] injected with 2.5, 5, or 10-mg/kg 8n or vehicle daily for another three weeks. The tumour dimensions were measured daily with vernier calipers, and the tumour volumes were calculated using the formula: volume = (width)^2 × length/2.

[1] = molecular target: Recombinant human Hsp90 protein; test: Hsp90 ATPase activity assay; type: biochemical; conditions: ADP detection, ATP 100 μM
Source text: Lianru Zhang, Brian S. J. Blagg, et al. reported that GA inhibited Hsp90 ATPase in vitro[21][38]. The effects of these compounds on Hsp90 ATPase activity were examined by measuring the ability of Hsp90 to hydrolyse ATP using a homogeneous time-resolved fluorescence (HTRF) assay to determine whether the caged-xanthone-derivatives of GA inhibited Hsp90. […] The inhibition of Hsp90 could decrease client protein levels. Based on the enzymatic, structural, and antiproliferative results, 8n was chosen for further investigation.
Figure 9 (A) The caged compounds (50 μM) inhibited the Hsp90 ATPase activity in a HTRF-based inhibition assay. (B) The IC50 values for the inhibition of Hsp90 ATPase by 8n, 8o and GA as detected by the HTRF Transcreener ADP kit. […] The amount of ADP generated was detected. […] (D) The mRNA expression of VEGF was determined by real-time quantitative reverse-transcriptase polymerase chain reaction (RT-PCR) and analysed by the delta Ct method. […]
To measure the Hsp90 ATPase activity, a ADP Hunter Plus Assay kit from DiscoverX was used as previously described. […] Then, the plate was incubated for another 0.5 h after the addition of ATP (100 μM), followed by addition of the detection reagent, and the fluorescence was measured at an excitation wavelength 540 nm and emission wavelength of 620 nm using a spectrophotometer (Varioskan multimode, Thermo). […]

Water solubility by HPLC = type: physicochemical; conditions: thermodynamic from solid; deionized water, stirred overnight, HPLC 290 nm; read-out: S, water solubility
Source text: The physicochemical characteristics of compounds directly determine their potential drug-like properties. Assessing a compound’s physicochemical properties before performing in vivo evaluations can guide further studies and minimize the time and cost associated with drug discovery. Therefore, parallel to the in vivo study, these solubilities of these compounds in water were experimentally measured using high-performance liquid chromatography (HPLC). Based on the results of full wave scanning, 290 nm was chosen as the maximum absorption wavelength for HPLC detection.
A HPLC system with an ultraviolet (UV) detector was used to detect the solubility of the compounds. The optimal wavelength was 290 nm. Ethanol/water (85:15) was an efficient eluent at a flow rate of 0.5 mL/min. The compounds were stirred in deionized water overnight to maximize the retention of the compounds in solution. Then, the solutions were filtered and the supernatant was used as a fluid sample for HPLC detection. The permeability (Pe) of some of the compounds was tested with the help of a standard PAMPA (pION), as previously reported. PAMPA was performed on a PAMPA Explorer instrument (pION, Inc., Woburn, MA) with the PAMPA Explorer command software (Version 3.7.4.1). The compounds were diluted to 10 mM with the system solution buffer (pH 7.4). Then, 150 μL of the diluted compound solution was transferred to a UV plate, and the UV spectrum was collected and used as a reference. Then, paint the membrane with 5 μL of gastrointestinal tract (GIT) lipid. The acceptor chamber was filled with 200 μL of acceptor solution buffer, and the donor chamber was filled with 200 μL of diluted compound solution. The PAMPA sandwich was assembled and left at 25 °C for 4 h. The UV spectra (240–500 nm) from the donor and the acceptor were collected. The permeability coefficient was calculated with the PAMPA Explorer Command software (Version 3.7.4.1) based on the area under the curve (AUC) of the reference plate, the donor plate, and the acceptor plate. The permeability coefficient of the compound was tested for four times, and the data are shown as the average values. Ketoprofen (4.5×10^−6 cm/s) and propranolol (112.8×10^−6 cm/s) were used as the standards in this assay.

MDA-MB-231 = test: MTT antiproliferative assay, MDA-MB-231; conditions: Homo sapiens, MDA-MB-231, 72 h, read-out: IC50 MDA-MB-231
Experimental: (§1) The inhibition of tumour cell growth was measured by a modified tetrazolium (MTT) salt assay, as previously described[39]. Cells were cultured in a 96-well plate and treated with culture medium alone or different concentrations of the compounds. The cells were incubated for 72 h, and then, the MTT assay reagent was added. After a 4 h incubation, the formazan product was quantitated at 570 nm. The IC50 values (the concentrations that gave rise to 50% inhibition of cell viability) were calculated using GraphPad Prism 6 using a variable slope (four parameters).

[2] = tested on: HepG2, HCT116, MDA-MB-231 and A549 cells; test: MTT antiproliferative assay, cell line panel
Experimental: as §1

HCT116 = test: MTT antiproliferative assay, HCT116; conditions: Homo sapiens, HCT-116, 72 h, read-out: IC50 HCT116
Experimental: as §1

HepG2 = test: MTT antiproliferative assay, HepG2; conditions: Homo sapiens, HepG2, 72 h, read-out: IC50 HepG2
Experimental: as §1

A549/taxol = test: MTT antiproliferative assay, Taxol-resistant A549; type: cell-based; conditions: MTT, 72 h; Taxol-resistant A549; read-out: IC50 A549/taxol
A549 = test: MTT antiproliferative assay, A549; conditions: Homo sapiens, A549, 72 h, read-out: IC50 A549
A549/cisplatin = test: MTT antiproliferative assay, cisplatin-resistant A549; type: cell-based; conditions: Homo sapiens, MTT, 72 h, read-out: IC50 A549/cisplatin
Experimental: as §1

[3] = parameters: method as in PMID 23167526; conditions: cited from earlier work

In the case of `C/C(=C\CC12OC(C)(C)C3CC(C=C4C(=O)c5c(O)cccc5OC431)C2=O)COC(=O)CN(C)C` (stereo not shown) [DDO-6306], the “inhibition of tumour growth” value (Heps tumour) is listed as 52.6%.

In the case of `O=c1[nH]cc(F)c(=O)[nH]1` [Compound 5-FU, 5-fluorouracil, reference compound], the “inhibition of the tumour volume, control groups” value (HepG2 tumours) is reported as 50.95%.

Work on `CO[C@H]1/C=C\C=C(/C)C(=O)NC2=CC(=O)C(NCCN(C)C)=C(C[C@@H](C)C[C@H](OC)[C@H](O)[C@@H](C)/C=C(\C)[C@@H]1OC(N)=O)C2=O` [Compound 17-DMAG, 17-(Dimethylaminoethylamino)-17-demethoxygeldanamycin] yielded an IC50 [1] of 919 nM.

For `COc1cccc2c1C(=O)C1=CC3CC4C(C)(C)OC(CC=C(C)C)(C3=O)C14O2` (stereo not shown) [Compound 3], the solubility (Water solubility by HPLC) was 10 µM (≈ 3.94 µg/mL), the IC50 (MDA-MB-231) was 1800 ± 60 nM and the “fold less active than DDO-6101” value ([2]; three cancer cell lines) was 4–8 fold. It also gave an IC50 (HCT116) of 6100 ± 190 nM and an IC50 (HepG2) of 8550 ± 430 nM.

For `CC(=O)Oc1cccc2c1C(=O)C1=CC3CC4C(C)(C)OC(CC=C(C)C)(C3=O)C14O2` (stereo not shown) [Compound 1], the solubility (Water solubility by HPLC) was 20 µM (≈ 8.45 µg/mL), the IC50 (A549/taxol) was 1620 ± 100 nM and the IC50 (A549) was 3000 ± 800 nM. For the same compound, the IC50 (MDA-MB-231) was 970 ± 90 nM, the IC50 (A549/cisplatin) was 1530 ± 200 nM and the IC50 ([2]; Homo sapiens, read-out: IC50 values, range over the cancer cell lines) was 970 to 1490 nM. It also gave an IC50 (HCT116) of 1490 ± 170 nM and an IC50 (HepG2) of 1070 ± 90 nM.

Compound `CC(C)=CCC12OC(C)(C)C3CC(C=C4C(=O)c5c(O)cccc5OC431)C2=O` (stereo not shown) [DDO-6101, reference compound] has a solubility (Water solubility by HPLC) of less than 5 µM, an IC50 (A549/taxol) of 460 ± 30 nM and an IC50 (A549) of 2590 ± 170 nM. The IC50 (MDA-MB-231) was 320 ± 90 nM, the IC50 (A549/cisplatin) was 2110 ± 100 nM and the “inhibition of the tumour volume, control groups” value (HepG2 tumours) was 36.81%. It also gave an IC50 (HCT116) of 710 ± 100 nM and an IC50 (HepG2) of 1140 ± 90 nM.

For `CC(C)=CCC12OC(C)(C)C3[C@@H](CN4CCN(C)CC4)C(C=C4C(=O)c5c(O)cccc5OC431)C2=O` (stereo partly shown) [DDO-6267], the “oral antitumor activity compared with GA” value [3] is given as “better oral antitumor activity than GA”.
